Experimental data from patent US8058295B2, “Cystic fibrosis transmembrane conductance regulator protein inhibitors and uses thereof” (The Regents of the University of California, priority 2002, dated 2011).
Like-named read-outs stand apart in the source and are kept apart here.

Assays:
CFTR [1] = molecular target: CFTR (Homo sapiens, UniProt P13569); test: Short-circuit current in T84 colonic epithelial cells
[2] = system: Volume-sensitive Cl^− channels; test: Volume-activated Cl^− current, whole-cell patch clamp in FRT cells; assay type: cell-based, rat; conditions: 5 μM; 250 mosM/kg hypotonic solution
From the text: FIG. 4B is a graphical representation of volume-activated Cl^− current (hypotonic 250 mosM/kg H2O) measured in whole-cell patch clamp experiments on FRT cells.

cellular cAMP production = test: Intracellular cAMP assay in FRT cells; assay type: cell-based, rat
CFTR [3] = molecular target: T1, CFTR (Mus musculus, UniProt P26361); test: Short-circuit current in mouse ileum
T1 construct: from tissue; host or cells: mouse ileum (wildtype CD1 mice)
T1 sequence (P26361 whole entry): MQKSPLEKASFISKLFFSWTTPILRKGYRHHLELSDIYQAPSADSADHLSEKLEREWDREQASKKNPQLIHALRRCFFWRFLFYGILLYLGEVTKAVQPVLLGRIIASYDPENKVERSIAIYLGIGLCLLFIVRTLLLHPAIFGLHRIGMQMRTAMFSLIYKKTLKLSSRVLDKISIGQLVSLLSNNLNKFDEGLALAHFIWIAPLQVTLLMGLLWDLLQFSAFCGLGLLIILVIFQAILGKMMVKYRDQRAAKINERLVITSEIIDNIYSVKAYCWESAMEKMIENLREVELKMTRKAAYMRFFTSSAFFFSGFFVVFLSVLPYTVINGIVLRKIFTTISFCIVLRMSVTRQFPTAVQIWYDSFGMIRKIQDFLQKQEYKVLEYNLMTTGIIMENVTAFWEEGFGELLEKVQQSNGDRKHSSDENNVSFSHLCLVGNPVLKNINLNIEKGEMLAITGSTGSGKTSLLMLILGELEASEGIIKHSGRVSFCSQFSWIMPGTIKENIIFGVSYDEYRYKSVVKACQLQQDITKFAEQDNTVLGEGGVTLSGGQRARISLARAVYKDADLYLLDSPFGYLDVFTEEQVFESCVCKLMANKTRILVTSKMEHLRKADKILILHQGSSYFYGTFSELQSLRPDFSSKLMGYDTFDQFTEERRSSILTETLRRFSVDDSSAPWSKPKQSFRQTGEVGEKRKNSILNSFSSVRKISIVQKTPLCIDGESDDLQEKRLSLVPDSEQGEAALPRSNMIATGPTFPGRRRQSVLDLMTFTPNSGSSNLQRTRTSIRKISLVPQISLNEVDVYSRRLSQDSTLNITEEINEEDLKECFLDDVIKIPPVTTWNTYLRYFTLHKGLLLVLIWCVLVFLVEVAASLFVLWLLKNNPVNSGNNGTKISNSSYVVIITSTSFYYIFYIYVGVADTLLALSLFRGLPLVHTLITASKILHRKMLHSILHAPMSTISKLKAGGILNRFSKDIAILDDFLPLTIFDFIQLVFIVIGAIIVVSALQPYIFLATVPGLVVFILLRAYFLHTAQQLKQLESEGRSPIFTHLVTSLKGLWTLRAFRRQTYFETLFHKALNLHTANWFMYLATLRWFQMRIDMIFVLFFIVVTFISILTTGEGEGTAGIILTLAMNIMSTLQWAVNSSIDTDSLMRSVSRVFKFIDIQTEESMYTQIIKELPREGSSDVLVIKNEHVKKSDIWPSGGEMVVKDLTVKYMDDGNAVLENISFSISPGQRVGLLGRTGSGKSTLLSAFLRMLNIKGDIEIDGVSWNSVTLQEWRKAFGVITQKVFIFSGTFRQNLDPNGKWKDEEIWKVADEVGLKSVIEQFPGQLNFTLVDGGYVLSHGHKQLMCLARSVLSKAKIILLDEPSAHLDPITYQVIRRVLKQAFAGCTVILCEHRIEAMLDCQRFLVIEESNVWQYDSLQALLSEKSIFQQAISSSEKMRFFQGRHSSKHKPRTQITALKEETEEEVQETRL

wildtype CFTR = wildtype CFTR (Homo sapiens, UniProt P13569); test: YFP fluorescence assay of CFTR-mediated I^− transport in FRT cells; assay type: cell-based; parameters: expressed in transfected cells; host or cells: Fischer rat thyroid (FRT) cells
wildtype CFTR, sequence (P13569 whole entry): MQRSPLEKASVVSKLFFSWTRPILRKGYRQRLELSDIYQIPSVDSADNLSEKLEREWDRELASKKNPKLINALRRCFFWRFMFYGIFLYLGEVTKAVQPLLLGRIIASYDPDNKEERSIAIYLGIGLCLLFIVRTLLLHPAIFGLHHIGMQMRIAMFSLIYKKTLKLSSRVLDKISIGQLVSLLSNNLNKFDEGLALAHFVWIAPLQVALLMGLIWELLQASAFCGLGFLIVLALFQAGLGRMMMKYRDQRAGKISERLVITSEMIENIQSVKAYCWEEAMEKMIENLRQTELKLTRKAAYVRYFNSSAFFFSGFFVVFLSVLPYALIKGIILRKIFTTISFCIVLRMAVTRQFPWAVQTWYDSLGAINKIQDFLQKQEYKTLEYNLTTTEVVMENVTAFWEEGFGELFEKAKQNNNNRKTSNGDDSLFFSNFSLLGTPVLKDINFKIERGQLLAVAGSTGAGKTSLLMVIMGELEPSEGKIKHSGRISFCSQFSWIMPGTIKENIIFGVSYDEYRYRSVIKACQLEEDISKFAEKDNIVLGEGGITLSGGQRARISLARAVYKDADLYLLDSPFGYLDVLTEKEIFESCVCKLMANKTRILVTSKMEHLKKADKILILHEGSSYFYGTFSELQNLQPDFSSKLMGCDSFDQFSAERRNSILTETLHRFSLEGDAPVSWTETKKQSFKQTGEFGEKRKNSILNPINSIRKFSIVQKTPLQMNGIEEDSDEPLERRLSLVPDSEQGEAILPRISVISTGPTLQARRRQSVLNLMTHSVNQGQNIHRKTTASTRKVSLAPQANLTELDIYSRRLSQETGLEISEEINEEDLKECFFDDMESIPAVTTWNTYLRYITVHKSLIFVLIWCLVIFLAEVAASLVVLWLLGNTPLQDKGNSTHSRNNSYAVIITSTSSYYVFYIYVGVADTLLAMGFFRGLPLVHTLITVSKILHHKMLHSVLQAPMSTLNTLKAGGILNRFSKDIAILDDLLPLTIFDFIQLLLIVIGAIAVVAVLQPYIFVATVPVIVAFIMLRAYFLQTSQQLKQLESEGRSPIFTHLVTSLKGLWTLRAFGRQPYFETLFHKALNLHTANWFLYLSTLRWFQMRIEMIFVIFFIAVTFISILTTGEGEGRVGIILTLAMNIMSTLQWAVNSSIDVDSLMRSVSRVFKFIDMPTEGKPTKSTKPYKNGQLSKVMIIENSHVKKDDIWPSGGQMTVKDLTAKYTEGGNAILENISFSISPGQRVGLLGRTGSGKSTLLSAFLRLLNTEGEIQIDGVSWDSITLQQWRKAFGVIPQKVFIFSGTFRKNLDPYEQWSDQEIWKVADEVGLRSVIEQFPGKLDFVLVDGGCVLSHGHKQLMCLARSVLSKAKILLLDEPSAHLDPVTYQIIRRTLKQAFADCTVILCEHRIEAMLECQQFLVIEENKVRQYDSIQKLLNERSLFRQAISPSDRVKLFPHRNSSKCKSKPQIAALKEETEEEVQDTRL

phosphatase activity = test: Phosphatase assay; assay type: cell-based; conditions: 5 μM
[4] = molecular target: T2, Cl^−/HCO3^− exchanger (AE1) (Homo sapiens, UniProt P02730); test: Cl^−/HCO3^− exchanger block; conditions: 5 μM
T2 sequence (P02730 1-911): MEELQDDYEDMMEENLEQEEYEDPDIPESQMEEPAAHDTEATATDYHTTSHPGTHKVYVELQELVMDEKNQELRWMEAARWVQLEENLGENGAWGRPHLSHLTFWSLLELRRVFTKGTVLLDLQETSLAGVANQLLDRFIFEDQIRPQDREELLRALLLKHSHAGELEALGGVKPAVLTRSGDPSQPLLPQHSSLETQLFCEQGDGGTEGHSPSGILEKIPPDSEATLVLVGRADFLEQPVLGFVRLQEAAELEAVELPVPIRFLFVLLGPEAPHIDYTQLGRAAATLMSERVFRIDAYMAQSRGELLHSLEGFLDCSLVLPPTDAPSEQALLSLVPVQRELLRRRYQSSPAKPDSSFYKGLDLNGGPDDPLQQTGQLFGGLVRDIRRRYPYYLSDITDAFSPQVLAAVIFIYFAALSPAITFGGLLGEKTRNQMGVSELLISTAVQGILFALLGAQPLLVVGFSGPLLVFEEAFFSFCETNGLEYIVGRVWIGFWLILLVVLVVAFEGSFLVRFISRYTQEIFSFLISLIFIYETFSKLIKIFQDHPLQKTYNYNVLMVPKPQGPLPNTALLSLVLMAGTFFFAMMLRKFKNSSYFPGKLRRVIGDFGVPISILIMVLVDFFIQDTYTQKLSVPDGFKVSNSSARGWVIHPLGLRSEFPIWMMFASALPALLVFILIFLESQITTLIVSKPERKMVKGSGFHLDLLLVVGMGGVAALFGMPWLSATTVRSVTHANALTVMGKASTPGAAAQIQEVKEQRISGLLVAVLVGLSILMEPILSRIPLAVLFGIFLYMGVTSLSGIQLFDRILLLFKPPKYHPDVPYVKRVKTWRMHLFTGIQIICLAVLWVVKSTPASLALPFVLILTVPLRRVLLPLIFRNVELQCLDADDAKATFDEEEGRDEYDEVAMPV

[5] = Pharmacokinetic analysis in rats after intravenous bolus; assay type: in vivo
Protocol: A bolus of ^14C-CFTRinh-172 (50 μCi) in PBS containing 3% DMSO (titrated to pH 7.4 using NaOH) was administered intravenously in rats over 1 min (male Sprague-Dawley rats, 360-420 grams) by an indwelling jugular catheter. Blood was collected from the catheter at specified times. ^14C-Radioactivity was determined in plasma (isolated by centrifugation of whole blood at 14,000 g for 10 min) by scintillation counting (Scintiverse SE, Fisher, Calif.) using a LS-6500 Multi-Purpose Scintillation Counter (Beckman). Pharmacokinetic analysis was done using WinNonLin software (Pharsight). Rats were sacrificed by pentobarbital overdose after collection of the final blood/tissue samples. All animal procedures were approved by the UCSF Committee on Animal Research.

[6] = system: Calcium-sensitive Cl^− channels; test: UTP-stimulated Ca^2+-dependent Cl^− secretion, short-circuit current in human bronchial epithelial cells; assay type: cell-based
From the text: Two non-CFTR Cl^− channels were studied.

[7] = Analysis of inhibitor metabolism by thin layer chromatography and autoradiography; assay type: in vivo, mice; conditions: urine, serum, bile, liver homogenate; TLC autoradiography
From the text: Film was exposed for autoradiography for 48 hr (left panel) and 12 hr (right panel).
Aliquots of bodily fluids (plasma, urine, bile) and liver homogenate were spotted onto Silica plates and resolved by thin layer chromatography using a ethyl acetate:hexane:methanol (1:1:0.1) solvent system which gave rf ˜0.5 for the original inhibitor.

[8] = rat, i.v. bolus, 2-compartment model

CFTR (Homo sapiens, UniProt P13569), sequence (P13569 whole entry): as the sequence (P13569 whole entry) above

SMILES: O=C(O)c1ccc(/C=C2\SC(=S)N(c3cccc(C(F)(F)F)c3)C2=O)cc1 [CFTRinh-172, 3-[(3-trifluoromethyl)phenyl]-5-[(4-carboxyphenyl)methylene]-2-thioxo-4-thiazolidinone]
- IC50 (CFTR [1]): ~3 µM
- Ki (CFTR [1]; KI, cells depolarized by high-K^+ basolateral solution): ~0.3 µM
- Ki (CFTR [1]; apparent KI, after basolateral permeabilization with amphotericin B, Cl^− gradient): 0.3 µM
- Ki (CFTR [1]; apparent KI, non-permeabilized T84 cells): ~3 µM
- block of volume-activated Cl^− currents [2]: did not block
- effect on cellular cAMP production (cellular cAMP production; 5 μM): did not affect
- cAMP content (cellular cAMP production; 30 min after 20 μM forskolin, + inhibitor (n=3)): 1140±50 fmol/well
- IC50 (CFTR [3]; forskolin (cAMP-dependent chloride secretion), read-out: concentration for fifty percent inhibition of short-circuit current): ~5 µM
- IC50 (CFTR [3]; intact intestine, read-out: apparent potency for inhibition of intestinal short-circuit current): 2 to 5 µM
- inhibition of CFTR activation by other agonists (wildtype CFTR; 5 μM inhibitor, genistein, CPT-cAMP, CPX, 8-MPO, UCCF-029, UCCF-853 (all 50 μM)): effectively inhibited
- t1/2 of inhibition (wildtype CFTR; after addition of 2 μM): 4 min
- time to complete inhibition (wildtype CFTR; after addition of 2 μM): ~10 min
- t1/2 of inhibition reversal after washout (wildtype CFTR; washout of 1 μM): ~5 min
- effect on phosphatase activity (phosphatase activity): did not affect
- block of Cl^−/HCO3^− exchanger (AE1) [4]: did not block
- detection in plasma ([5]; 72 hr after administration): No ^14C-labeled CFTRinh-172 was detected
- detection in liver or kidney homogenates ([5]; 14 days after administration): No ^14C-labeled CFTRinh-172 was detected
- area under curve (AUC) [5, 8]: 3800 ng·h/mL
- clearance [5, 8]: 99 mL/h
- elimination half-time [5, 8]: 10.3 h
- maximum serum concentration [5, 8]: 3.2 µg/mL
- redistribution half-time [5, 8]: 0.14 h
- volume of distribution [5, 8]: 1.2 L
- inhibition of Ca^2+ activated secretion ([6]; 5 μM, UTP 100 μM): did not inhibit
- maximal UTP-dependent short-circuit current ([6]; in presence of 5 μM inhibitor (SE, n=4)): 10.0±0.2 μA/cm^2
- chemical modification (metabolism) [7]: did not occur
